Data as given in the supplement of paper PMC11061612.

What was measured:
Assay in all cases: Bliss excess, mean over the matrix (fraction); higher = more synergy
[1] = system: COR-L88 (Small Cell Lung Carcinoma)
Summary of the method: (§1)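 Bliss excess equals the observed combination effect minus the expected value EA + EB − EA·EB, where EA and EB are the effects of each agent alone. Combination Emax is the second-highest inhibition within the matrix. Inhibition was scaled from CellTiter-Glo 2.0 luminescence, with 0 set by vehicle wells and 1 by blank wells, after 72 hours of two-drug dosing of cells plated in 1536-well plates.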

[2] = system: NB1 (Neuroblastoma)
Summary of the method: as §1

[3] = system: P32-ISH (Burkitt's Lymphoma)
Summary of the method: as §1

[4] = system: GAK (Melanoma)
Summary of the method: as §1

[5] = system: CPC-N (Small Cell Lung Carcinoma)
Summary of the method: as §1

[6] = system: NCI-H1876 (Small Cell Lung Carcinoma)
Summary of the method: as §1

[7] = system: DBTRG-05MG (Glioblastoma)
Summary of the method: as §1

[8] = system: PA-TU-8988T (Pancreatic Carcinoma)
Summary of the method: as §1

[9] = system: LS-1034 (Colorectal Carcinoma)
Summary of the method: as §1

[10] = system: OAW-28 (Ovarian Carcinoma)
Summary of the method: as §1

[11] = system: NCI-H226 (Mesothelioma)
Summary of the method: as §1

[12] = system: ES6 (Ewing's Sarcoma)
Summary of the method: as §1

[13] = system: SK-N-SH (Neuroblastoma)
Summary of the method: as §1

[14] = system: MM1S (Plasma Cell Myeloma)
Summary of the method: as §1

[15] = system: T47D (Breast Carcinoma)
Summary of the method: as §1

[16] = system: P30-OHK (B-Lymphoblastic Leukemia)
Summary of the method: as §1

[17] = system: OVCAR-3 (Ovarian Carcinoma)
Summary of the method: as §1

[18] = system: HT-1080 (Other Solid Carcinomas)
Summary of the method: as §1

[19] = system: C-33-A (Cervical Carcinoma)
Summary of the method: as §1

[20] = system: MOLP-8 (Plasma Cell Myeloma)
Summary of the method: as §1

SMILES	Bliss excess [1]	Bliss excess [2]	Bliss excess [3]	Bliss excess [4]	Bliss excess [5]	Bliss excess [6]	Bliss excess [7]	Bliss excess [8]	Bliss excess [9]	Bliss excess [10]	Bliss excess [11]	Bliss excess [12]	Bliss excess [13]	Bliss excess [14]	Bliss excess [15]	Bliss excess [16]	Bliss excess [17]	Bliss excess [18]	Bliss excess [19]	Bliss excess [20]
NC1(C(=O)N[C@@H](CCO)c2ccc(Cl)cc2)CCN(c2ncnc3[nH]ccc23)CC1 [Capivasertib] + CC(=O)c1c(C)c2cnc(Nc3ccc(N4CCNCC4)cn3)nc2n(C2CCCC2)c1=O [Palbociclib] (first compound max 10 µM, 7x7, partner max 10 µM)	-0.0113	-0.0201	0.0066	0.0095	-0.0448	-0.0263	-0.0072	-0.0168	-0.0157	-0.0162	-0.0792	-0.0055	0.0041	-0.0128	-0.0115	0.0689	-0.0396	-0.0779	-0.042	0.0115
NC1(C(=O)N[C@@H](CCO)c2ccc(Cl)cc2)CCN(c2ncnc3[nH]ccc23)CC1 [Capivasertib] + CC(C)n1c(=O)n(C)c2cnc3cc(F)c(-c4ccc(OCCCN5CCCCC5)nc4)cc3c21 [AZD1390] (first compound max 10 µM, 7x7, partner max 0.3 µM)	-0.0746	-0.0688	0.0131	-0.0397	-0.0435	-0.0805	-0.0418	-0.0434	-0.0447	-0.0674	-0.0484	-0.0981	-0.0626	-0.0204	-0.0476	-0.0289	-0.0438	-0.0504	-0.0383	-0.0032
NC1(C(=O)N[C@@H](CCO)c2ccc(Cl)cc2)CCN(c2ncnc3[nH]ccc23)CC1 [Capivasertib] + CCN(CCO)CCCOc1ccc2c(Nc3cc(CC(=O)Nc4cccc(F)c4)[nH]n3)ncnc2c1 [AZD2811] (first compound max 10 µM, 7x7, partner max 1 µM)	-0.0738	-0.0284	-0.021	-0.0181	-0.0523	0.0781	0.03	0.103	-0.0634	0.0262	-0.0459	-0.0055	-0.0455	0.0257	0.071	-0.044	0.0224	-0.0498	0.0297	0.0345
NC1(C(=O)N[C@@H](CCO)c2ccc(Cl)cc2)CCN(c2ncnc3[nH]ccc23)CC1 [Capivasertib] + COc1nnc2ccc(N3CCC(c4ccc(OCCN5CCN(C)C(=O)[C@H]5C)cc4)CC3)nn12 [AZD5153] (first compound max 10 µM, 7x7, partner max 1 µM)	0.0516	0.0085	0.119	-0.0323	-0.0348	0.0774	-0.0239	-0.0603	0.0201	0.0387	-0.0165	0.0103	0.0362	0.0564	0.0139	0.0358	0.0189	-0.0558	0.0321	0.0092
NC1(C(=O)N[C@@H](CCO)c2ccc(Cl)cc2)CCN(c2ncnc3[nH]ccc23)CC1 [Capivasertib] + C[C@@H]1COCCN1C2=NC(=NC(=C2)C3(CC3)[S@](=N)(=O)C)C4=C5C=CNC5=NC=C4 [AZD6738] (first compound max 10 µM, 7x7, partner max 10 µM)	-0.0456	-0.0341	0.0277	-0.0552	-0.0117	0.0649	0.0064	-0.0372	-0.0782	0.0005	-0.0775	-0.0479	-0.0576	0.0201	-0.0095	0.0468	-0.0169	-0.0473	-0.065	0.0357
NC1(C(=O)N[C@@H](CCO)c2ccc(Cl)cc2)CCN(c2ncnc3[nH]ccc23)CC1 [Capivasertib] + Cn1cnc2c(F)c(Nc3ccc(Br)cc3Cl)c(C(=O)NOCCO)cc21 [Selumetinib] (first compound max 10 µM, 7x7, partner max 10 µM)	0.0084	0.0054	0.0288	-0.0649	-0.0381	0.0122	-0.0148	0.128	-0.0123	-0.0034	-0.063	-0.0397	-0.0223	0.0712	-0.0108	0.0142	-0.0223	0.0159	0.0513	0.121
Cc1nc(Nc2ncc(C(=O)Nc3c(C)cccc3Cl)s2)cc(N2CCN(CCO)CC2)n1 [Dasatinib] + CC(=O)Nc1cccc(-n2c(=O)n(C3CC3)c(=O)c3c(Nc4ccc(I)cc4F)n(C)c(=O)c(C)c32)c1 [Trametinib] (first compound max 2 µM, 7x7, partner max 1 µM)	-0.0239	-0.0502	0.0545	-0.0624	-0.0405	-0.0548	0.0499	0.136	-0.0302	0.0599	0.027	-0.0495	-0.0507	-0.0089	-0.0855	-0.0442	-0.001	0.0472	0.0559	0.0159
COc1cccc2c1C(=O)c1c(O)c3c(c(O)c1C2=O)C[C@@](O)(C(=O)CO)C[C@@H]3O[C@H]1C[C@H](N)[C@H](O)[C@H](C)O1 [Doxorubicin] + Cc1cc2ncnn2cc1Nc1ncc2c(n1)n(C1CCOCC1)c(=O)n2C [AZD7648] (first compound max 1 µM, 7x7, partner max 10 µM)	-0.0228	0.0581	0.14	0.0711	0.105	0.144	0.0225	0.0582	0.0055	0.0209	0.0068	0.0672	0.0605	0.0891	-0.0004	0.129	0.0489	0.108	0.0531	0.0396
COc1cc2ncnc(Nc3ccc(F)c(Cl)c3)c2cc1OCCCN1CCOCC1 [Gefitinib] + CC(C)n1c(=O)n(C)c2cnc3cc(F)c(-c4ccc(OCCCN5CCCCC5)nc4)cc3c21 [AZD1390] (first compound max 10 µM, 7x7, partner max 0.3 µM)	-0.0652	-0.0419	-0.0116	-0.0656	-0.0369	-0.074	-0.0482	-0.0342	-0.0368	-0.0392	-0.0661	-0.0574	-0.0718	-0.0356	-0.0438	-0.0298	-0.056	-0.0548	-0.0656	-0.0584
CS(=O)(=O)CCNCc1ccc(-c2ccc3ncnc(Nc4ccc(OCc5cccc(F)c5)c(Cl)c4)c3c2)o1 [Lapatinib] + C[C@@H](Oc1cc(-c2cnn(C3CCNCC3)c2)cnc1N)c1c(Cl)ccc(F)c1Cl [Crizotinib] (first compound max 10 µM, 7x7, partner max 10 µM)	-0.0234	0.0158	0.0037	-0.0066	-0.0741	0.0167	-0.0334	-0.0244	-0.0407	-0.0177	-0.0513	-0.0437	-0.0618	0.0395	-0.0223	0.0323	-0.0161	-0.012	-0.0373	0.012
CC(=O)c1c(C)c2cnc(Nc3ccc(N4CCNCC4)cn3)nc2n(C2CCCC2)c1=O [Palbociclib] + CC1(C)CCC(CN2CCN(c3ccc(C(=O)NS(=O)(=O)c4ccc(NCC5CCOCC5)c([N+](=O)[O-])c4)c(Oc4cnc5[nH]ccc5c4)c3)CC2)=C(c2ccc(Cl)cc2)C1 [Venetoclax] (first compound max 10 µM, 7x7, partner max 1 µM)	-0.0764	-0.0154	-0.0132	-0.034	-0.0394	0.0162	-0.0477	-0.0333	-0.12	-0.0112	-0.0174	-0.0387	-0.0185	0.0353	0.0466	0.126	-0.0356	-0.0573	-0.0474	0.0278
CC(=O)c1c(C)c2cnc(Nc3ccc(N4CCNCC4)cn3)nc2n(C2CCCC2)c1=O [Palbociclib] + Cc1c2c(nn1C)CSCc1cc(n(C)n1)CSc1cc(c3ccccc3c1)OCCCc1c(C(=O)O)n(C)c3c-2c(Cl)ccc13 [AZD5991] (first compound max 10 µM, 7x7, partner max 1 µM)	0.0122	-0.061	0.0299	-0.0234	0.0035	0.0191	-0.0561	-0.0361	-0.064	0.0058	-0.0287	-0.0326	-0.0257	-0.0482	0.0375	0.0418	-0.0553	-0.0592	-0.0163	0.0347
CC(=O)c1c(C)c2cnc(Nc3ccc(N4CCNCC4)cn3)nc2n(C2CCCC2)c1=O [Palbociclib] + Cn1cnc2c(F)c(Nc3ccc(Br)cc3Cl)c(C(=O)NOCCO)cc21 [Selumetinib] (first compound max 10 µM, 7x7, partner max 10 µM)	-0.026	-0.0669	-0.0334	0.0221	-0.0271	0.0495	0.0013	0.0449	0.0354	-0.0301	-0.0052	0.0235	-0.0238	-0.0061	-0.0328	-0.0089	-0.0361	-0.0519	0.0164	0.0926
COc1cccc(OCCCN)c1-c1cc(Nc2cnc(C#N)cn2)n[nH]1 [Prexasertib] + C=CCn1c(=O)c2cnc(Nc3ccc(N4CCN(C)CC4)cc3)nc2n1-c1cccc(C(C)(C)O)n1 [AZD1775] (first compound max 1 µM, partner max 1 µM)	0.0538	0.0693	0.0657	0.0832	0.0431	0.0393	-0.0008	0.227	0.0999	0.0319	0.0023	0.0362	0.0025	0.0356	0.085	0.0398	0.16	0.0643	0.0983	0.0398
COc1cccc(OCCCN)c1-c1cc(Nc2cnc(C#N)cn2)n[nH]1 [Prexasertib] + CCc1c2c(nc3ccc(O)cc13)-c1cc3c(c(=O)n1C2)COC(=O)[C@]3(O)CC [SN-38] (first compound max 1 µM, 7x7, partner max 0.3 µM)	-0.0204	-0.0529	-0.0201	0.0087	0.0633	0.0067	-0.0558	0.167	0.0888	-0.0269	-0.058	0.0156	-0.0778	-0.0065	-0.0399	-0.0164	0.141	-0.0274	0.0583	-0.082
